SMILES strings stand for the structures. Where only a bound is given, the exact number is not on record here.

As a reminder, the melting point is the temperature, or range, at which the solid turns liquid. Turning to `CC(C(=O)NCCN(C)C)n1c(-c2ccc(Cl)cc2)nc2cccnc21` (stereo not drawn), the melting point lay in the range of 130 to 133 °C. `CC(C)(C)c1cc2c(c(C(C)(C)C)c1)OC(=O)C2c1ccc(C(F)(F)F)cc1` (stereo not drawn) returned a melting point of 127 to 128 °C. The value for `COc1cc(C)c(NS(=O)(=O)N(C)C)cc1C(=O)NCC1CCCO1` (stereo not drawn) was 130 to 131 °C; that for `CC(=O)Nc1cc(-c2c(-c3cccc(C)c3)nc3ccc(Cl)nn23)ccn1` was 228 to 229 °C; that for `CC(C)n1cnc(N2CCc3ccccc3CC2)c(C#N)c1=O` was 152 to 154 °C. Take `CC(C)(C)OC(=O)Cc1c(Cl)nc(N)nc1C#N`: the melting point was 107 to 109 °C. Compound `COC(=O)c1nc(-c2ccc(Cl)c(OC)c2F)nc2ncn(C)c12` gave a melting point of 197 to 198 °C. Regarding `COc1ccc(C(=O)C(C)NC(=O)C(F)(F)F)cc1` (stereo not drawn), the melting point is 110 to 114 °C. The value for `CCc1cc(CC)c2ccc(N)nc2n1` was 187 to 189 °C.

In turn, `CCNc1nc(SC)nc(SC)c1[N+](=O)[O-]` came in with a melting point of 149 to 150 °C. The result for `O=C(O)c1nn(-c2ccc(Cl)cc2Cl)c2c1CCc1cc(C(F)(F)F)ccc1-2` reads 245 °C.

The compound `CN1CCN(Cc2cc(-c3ccc4c(c3)CCO4)nn(Cc3ccc(F)cc3)c2=O)CC1` displayed a melting point of 179 to 180 °C. `COC(=O)c1cc2ccc(C(=O)NCCc3ccccn3)cc2[nH]1` had a melting point of 191 to 193 °C.

Compound `CC(C)c1cccc(Cl)c1Oc1nnc(Cl)cc1Cl` yielded a melting point of 90 to 91 °C. The compound `CCOC(=O)CCCn1c(Nc2cnc(N(C)C)cc2C)nc2c(Cl)ccc(C(CC)CC)c21` came in with a melting point of 158 to 159 °C. In turn, `CCNC(=O)N(CCO)Cc1cc([N+](=O)[O-])ccc1OC` had a melting point of 93 to 94 °C. The value for `Nc1ccccc1C(=O)c1ccc(Br)cc1` was 104 to 106 °C; that for `N#CCCC1(C(N)=O)c2ccccc2-c2ccccc21` was 148 to 152 °C.

For the compound `NC(=O)N1CCc2cc(S(N)(=O)=O)sc2C1`, the melting point lay in the range of 205 to 208 °C. As to `CN(C)c1c(-c2ccc(-c3ccccc3)cc2)nc2ccc(F)cc2c1C(=O)O`, the melting point was in the range of 235 to 239 °C. As to `O=C(CC1CCCCC1)Nc1c(Cl)ccc2nc(N3CCC(c4nnn[nH]4)CC3)ccc12`, the melting point was in the range of 295 to 300 °C. Compound `Cc1nn2c(-c3cccc(C(F)(F)F)c3)ccnc2c1C#N` yielded a melting point of 149 to 150 °C. `COc1ccc2c(c1)C(=O)C(=O)C=C2` registered a melting point of 78 to 80 °C.

On to `COCCCn1nnnc1-c1cc(-c2cc(C(C)C)ccc2OC)c(OCc2ccccc2)cc1OCc1ccccc1`, for which the melting point fell in the range of 102 to 104 °C. Regarding `CC(C)(C)C(=O)Nc1nc(Nc2cccc(Br)c2)c2c(n1)[nH]c1ccccc12`, the melting point fell in the range of 287 to 288 °C. The value for `Cc1oc(-c2ccco2)nc1COc1cc(CCl)ccn1` was 107 to 108 °C; that for `O=[N+]([O-])c1ccc(N2CCCNCC2)cc1` was 115 to 116 °C; that for `N#CCN1CCC(c2noc3cc(F)ccc23)CC1` was 130 to 132 °C. The value for `O=C(O)[C@H](Cc1ccccc1)NC(=O)[C@@H]1CCCN1S(=O)(=O)c1ccc(Cl)cc1` was 69 to 71 °C. Consider `CN(C(=O)c1ccc2nonc2c1)C1CCCCCC1`, for which the melting point is 80 to 81 °C. The result for `CCOC(=O)C1=C(COCc2nnn(CCN)n2)NC(C)=C(C(=O)OC)C1c1ccccc1Cl` (stereo not drawn) reads 126 to 127 °C; that for `COc1ccc(-c2nn3c(S(C)=O)nnc3c3ccccc23)cc1` (stereo not drawn), 201 °C. As to `COC(=O)NNc1cc(C)c(-c2ccc(C#N)cc2)nn1`, the melting point was 191 to 192 °C.

In turn, `CCNS(=O)(=O)Nc1ccc(C(O)(C(F)(F)F)C(F)(F)F)cc1` yielded a melting point of 178 to 179 °C. The result for `CN1C(=O)CN=C(c2ccccc2F)c2cc(NC(=O)NCCCO)ccc21` reads 118 to 119 °C; that for `O=C(NC(=O)C(c1ccccc1)c1ccccc1)OCCCc1ccncc1`, 147 to 150 °C; that for `CCCC(=O)OCc1ccc2oc(=O)c(C(=O)Oc3cncc(Cl)c3)cc2c1`, 146 to 148 °C. The result for `CCOC(C#N)Cc1ccc(O)c(N)c1` (stereo not drawn) reads 114 to 115 °C; that for `NS(=O)(=O)c1cc2c(Cl)c(O)ccc2s1`, 198 to 201 °C. The result for `Cc1nc2c(c(N3CCN(CCO)CC3)n1)OC(C)C(=O)N2` (stereo not drawn) reads 160 to 161 °C; that for `O=C(NS(=O)(=O)C(F)(F)F)c1cccc([N+](=O)[O-])c1`, 80 to 83 °C.

For the compound `COc1ccc(CNc2nc(SC)ncc2C(O)c2nccn2C)cc1Cl` (stereo not drawn), the melting point was 179 to 180 °C.

Consider `O=C1C=CC(=O)N1c1ccccc1SCCSc1ccccc1N1C(=O)C=CC1=O`, for which the melting point lay in the range of 110 to 115 °C.

On to `Oc1ccc2c(-c3cccc4c(O)cccc34)noc2c1`, for which the melting point lay within 258 to 259 °C. With `COc1c(C2CCN(CCCCNC(=O)c3ccc(-c4ccc(Cl)nn4)cc3)CC2)ccc2c1CCCC2`, the melting point fell in the range of 192 to 194 °C. As for `N#CSc1cnn(-c2nc(F)c(C(F)(F)F)cc2Cl)c1N`, the melting point was 109 to 114 °C. For `CC12CCC(C1)C1(C)Oc3ccc(C(=O)c4ccc(C=O)cc4)cc3C21C` (stereo not drawn), the melting point is 138 to 142 °C. The result for `O=C(O)c1cc(-c2ccccc2S(=O)(=O)NCCO)c2ccc3c(-c4ccccc4S(=O)(=O)NCCO)cc(C(=O)O)nc3c2n1` reads > 300 °C. On to `Cc1ccc(-c2nn(C(C)(C)C(=O)N(C)C)cc2C)c(Cl)c1`, for which the melting point is 126 to 128 °C.

For `Nc1ccc(C(=O)Cn2c(-c3nonc3NCCC(=O)O)nc3ccccc32)cc1`, the melting point lay in the range of 174 to 177 °C. The compound `Cc1cc(-c2c(C)nc3ccc(N4CCNC(C)(C)C4)nn23)ccn1` gave a melting point of 110 to 112 °C. In the case of `CCOCc1nc2c(N)nc3ccccc3c2n1CC1(N)CCCCC1`, the melting point was 166 to 168 °C. The result for `COC(=O)CC[C@H](NC(=O)c1ccc(C(CO)CCCc2c(N)nc(N)nc2O)cc1)C(=O)OC` (stereo partly drawn) reads 104 °C; that for `O=[N+]([O-])c1cn2c(n1)O[C@@H](COc1ccc(N3CCN(Cc4ccc(Oc5ccc(C(F)(F)F)cn5)cc4)CC3)cc1)CC2`, 229 to 230 °C. Compound `CCOC(=O)Cc1sc(Sc2cc(C(=O)OCC)nc3c(OC)cccc23)nc1C` showed a melting point of 120 to 121 °C. The value for `Cc1cn2c(=O)c3c(Cl)cccc3nc2s1` was 235 to 236 °C; that for `CN1CCC(N2C(=O)CN=C(c3ccccc3F)c3cc(Cl)ccc32)CC1` was 145 to 146 °C; that for `O=c1ccc2cc([N+](=O)[O-])cc(-c3cccc4ccccc34)c2[nH]1` was 234 to 235 °C.

`Cc1nnc2n1-c1ccc(C#CCn3nc4ccccn4c3=O)cc1C(c1ccccc1F)=NC2` displayed a melting point of 170 to 173 °C. For `OCCC#Cc1ccc2c(-c3ccc(Cl)cc3)nsc2c1`, the melting point was in the range of 128 to 129 °C. The value for `CC1(c2ccccc2)OC(C(=O)O)Oc2ccccc21` (stereo not drawn) was 153 °C; that for `N#CCCCCn1c(=O)c2ccccc2n(CCCCN2CCC(OC(c3ccccc3)c3ccccc3)CC2)c1=O` was 119 to 121 °C. The value for `COCCOc1cc2ncnc(NC3=CC(=O)C(Oc4cccnc4)=CC3=O)c2cc1OC` was 189 to 190 °C; that for `N#Cc1ccc(NCCc2[nH]c3c(cnc4cc(Cl)ccc43)c2C=O)cc1` was 203 to 206 °C.

Compound `Nc1nc(Cl)c(NC=O)c(N[C@H]2C=C[C@@H](CO)C2)n1` came in with a melting point of 174 to 176 °C. The value for `O=C(c1ccc(F)cc1)C1CCN(CCn2c(=O)[nH]c3cc(F)ccc3c2=O)CC1` was 248 °C. The result for `N#Cc1ccc2[nH]cc(C3CCC(=O)CC3)c2c1` reads 162 to 164 °C. In turn, `CCCCc1ncc(/C=C(\Cc2ccc([N+](=O)[O-])cc2)C(=O)O)n1Cc1ccccc1Cl` came in with a melting point of 207 to 208 °C. The value for `CCN(CC)C(=O)c1ccc(-c2nc(=O)c3ccccc3s2)nc1` was 193 °C. The value for `CCCCCCCCCCCCCCCCCCOc1cc(OCc2ccc3ccccc3n2)cc(N(CC(=O)O)CC(=O)O)c1` was 172 to 174 °C. The result for `Cc1ccc(NCC2CCN(C3CCCC3)CC2)c(C(=O)Nc2ccc(Cl)cn2)c1` reads 173 to 175 °C; that for `N#CCCSCc1nccc(NC(=S)NCC(F)(F)F)n1`, 108 to 110 °C.

Turning to `COC(=O)CCC(C)C1CCC2C3CCC4CC(N=[N+]=[N-])CCC4(C)C3CC(=O)C12C` (stereo not drawn), the melting point came out at 153 °C. Consider `c1cnc(NC2CCN(CC3CCc4ccccc4O3)CC2)nc1` (stereo not drawn), for which the melting point turned out to be 142 °C. In turn, `COCc1nc2c(OC)ccc(CCc3ccncc3)c2[nH]1` yielded a melting point of 154 to 156 °C. On to `CCCOCCN(C)c1ccc(-c2ccc3c(c2)C=C(C(=O)Nc2ccc(CN(C)C4CCOCC4)cc2)CCS3(=O)=O)cc1`, for which the melting point lay within 193 to 194 °C. As to `CN(c1cccc2cc(C3=NCC(CC(=O)O)S3)[nH]c12)S(=O)(=O)c1cccs1` (stereo not drawn), the melting point is 232 to 234 °C. The value for `CC(C)n1cc(C(=O)NCc2ccc(Cl)cc2)c(=O)c2cc(CN3CCOCC3)sc21` was 191 to 195 °C; that for `CCOC(=O)c1ccc(N2CCN(C(=O)c3ccc(Cl)cc3)CC2)cc1` was 147 to 150 °C. Compound `CC1CN(c2ccc([N+](=O)[O-])cc2Cl)C(=O)O1` (stereo not drawn) showed a melting point of 73 to 75 °C. The value for `Cc1c(SCCCSCc2ccncc2)ccnc1CNc1ncncc1Cl` was 148 to 149 °C; that for `CC(=O)c1cc2c(Cl)cccc2s1` was 113 to 115 °C; that for `CC(=O)N(O)CCOc1ccc(-c2ccc(C#N)cc2)cc1` was 174 to 175 °C. The result for `COc1ccc(COC(=O)NC(C(=O)O)c2cccs2)cc1` (stereo not drawn) reads 153 to 156 °C; that for `CCCCCCCCCCCCCCCCCC(=O)OC1CC(C)(C)N(OC2CCCCC2)C(C)(C)C1`, 44 to 47 °C; that for `NC(=O)C1c2ccccc2SN1CCN1CCN(c2nsc3ccccc23)CC1` (stereo not drawn), 160 to 163 °C. The result for `CCOC(=O)C1CN(C(=O)OCc2ccccc2)CC1=O` (stereo not drawn) reads 56.6 to 59.7 °C; that for `C#CCOc1ncc(Cl)cc1OC`, 62 to 64 °C.

The values are drawn from a melting point compilation (Tetko et al.; mined from patent text by program, amines drawn as free bases though some values may be those of a salt).
